Experimental data published in publication PMC11191101, “Investigation of Newly Synthesized Fluorinated Isatin-Hydrazones by In Vitro Antiproliferative Activity, Molecular Docking, ADME Analysis, and e-Pharmacophore Modeling” (ACS Omega, 2024).
“Also recorded” adds a separate entry of the source.

What was measured:
[1] = system: A549 human lung epithelial carcinoma cell line; test: MTT cytotoxicity, A549 lung cancer cells; format: cell-based; conditions: for cytotoxic effect on A549 lung cancer cell line (in words) / selectivity index (SI), HEK-293T IC50 divided by A549 IC50: 72 h; for cytotoxic effect on A549 lung cancer cell line (in words): up to 200 μM; for IC50: MTT, 72 h, 200, 100, 50, 25 μM tested; for selectivity index (SI), HEK-293T IC50 divided by A549 IC50: IC50 >200 taken as 200
Protocol: (§1) Compounds (1–15) were screened in two cancer and normal cell lines at concentrations of 200, 100, 50, and 25 μM for 72 h.
(§2) This section of the study was performed following the procedure described in our previous study.[51],[52] The human lung cancer cell line (A549; ATCC CCL-185), human liver cancer cell line (HepG2; ATCC HB-8065), and human normal embryonic kidney cell line (HEK-293T) were cultured in high-glucose Dulbecco’s modified Eagle’s medium supplemented with 10% fetal bovine serum and 1% glutamax. Cells were seeded at a density of 5 × 10^3 cells/well in sterile 96-well plates and incubated for 24 h. Following incubation, the cells were exposed to the prepared compounds (1–15) and cisplatin at 200, 100, 50, and 25 μM concentrations for 72 h. After the incubation period, the medium in the plates was carefully removed and the prepared MTT solution was added to each well of the plates. The plates were incubated for 2 h in an incubator. Absorbance was measured using an Epoch 2 ELISA plate reader at 590 nm. The IC50 values were calculated using GraphPad Prism Software version 5.

[2] = system: HEK-293T human normal embryonic kidney cell line; test: MTT toxicity, HEK-293T normal cells; format: cell-based; conditions: 72 h; for IC50: MTT, normal cell line, 200, 100, 50, 25 μM tested; for toxic effect on healthy HEK-293T cells (in words): up to 200 μM
Protocol: as §1, §2

[3] = system: HepG2 human liver epithelial carcinoma cell line; test: MTT cytotoxicity, HepG2 liver cancer cells; format: cell-based; conditions: for IC50: Homo sapiens, HepG2, MTT, 72 h, 200, 100, 50, 25 μM tested; for cytotoxic effect on HepG2 liver cancer cell line (in words) / selectivity index (SI), HEK-293T IC50 / HepG2 IC50: 72 h; for cytotoxic effect on HepG2 liver cancer cell line (in words): up to 200 μM; for selectivity index (SI), HEK-293T IC50 / HepG2 IC50: IC50 >200 taken as 200
Protocol: as §1, §2

SMILES	melting point [°C]	cytotoxic effect on A549 lung cancer cell line (in words) [1]	IC50 ([1]; Homo sapiens, A549) [µM]	IC50 ([2]; Homo sapiens, HEK-293T) [µM]	IC50 [3] [µM]	selectivity index (SI), HEK-293T IC50 divided by A549 IC50 [1]	toxic effect on healthy HEK-293T cells (in words) [2]	cytotoxic effect on HepG2 liver cancer cell line (in words) [3]	selectivity index (SI), HEK-293T IC50 / HepG2 IC50 [3]	IC50 [1] [µM]	IC50 [2] [µM]
NN=C1C(=O)Nc2ccc(F)cc21 [Compound 1, 5-Fluoro-3-hydrazonoindolin-2-one]	203 to 204	not active	> 200	> 200	> 200	–	–	–	–	–	–
O=C1Nc2ccc(F)cc2C1=NN=Cc1ccccc1 [Compound 2, 5-Fluoro-3-{[benzylidene]hydrazinylidene}indolin-2-one]	229 to 230	not active	> 200	> 200	> 200	–	–	–	–	–	–
O=C1Nc2ccc(F)cc2C1=NN=Cc1ccc(Br)cc1 [Compound 3, 5-Fluoro-3-{[4-bromobenzylidene]hydrazinylidene}indolin-2-one]	262 to 263	cytotoxic effect	186	25	> 200	0.13	highly toxic effects	–	–	–	–
O=C1Nc2ccc(F)cc2C1=NN=Cc1ccc(Cl)cc1 [Compound 4, 5-Fluoro-3-{[4-chlorobenzylidene]hydrazinylidene}indolin-2-one]	257 to 258	not active	> 200	29.3	> 200	–	toxic effect; also recorded: highly toxic effects	–	–	–	–
O=C1Nc2ccc(F)cc2C1=NN=Cc1ccc(F)cc1 [Compound 5, 5-Fluoro-3-{[4-fluorobenzylidene]hydrazinylidene}indolin-2-one]	246 to 248	not active	> 200	193	108	–	did not show high toxicity	cytotoxic effects	1.78	–	–
Cc1ccc(C=NN=C2C(=O)Nc3ccc(F)cc32)cc1 [Compound 6, 5-Fluoro-3-{[4-methylbenzylidene]hydrazinylidene}indolin-2-one]	241 to 242	not active	> 200	140	> 200	–	toxic effect	–	–	–	–
COc1ccc(C=NN=C2C(=O)Nc3ccc(F)cc32)cc1 [Compound 7, 5-Fluoro-3-{[4-methoxybenzylidene]hydrazinylidene}indolin-2-one]	247 to 248	not active	> 200	197	153	–	–	cytotoxic effects	1.29	–	–
O=C1Nc2ccc(F)cc2C1=NN=Cc1ccc([N+](=O)[O-])cc1 [Compound 8, 5-Fluoro-3-{[4-nitrobenzylidene]hydrazinylidene}indolin-2-one]	249 to 251	cytotoxic effect	42.4	6.04	48.4	0.14	–	cytotoxic effects	0.12	–	–
O=C1Nc2ccc(F)cc2C1=NN=Cc1ccccc1O [Compound 9, 5-Fluoro-3-{[2-hydroxybenzylidene]hydrazinylidene}indolin-2-one]	252 to 253	not active	> 200	142	> 200	–	toxic effect	–	–	–	–
N.N.[Cl][Pt][Cl] [cisplatin, reference compound]	–	–	–	–	–	–	–	–	–	4.19	7.48

More lines, main results first:

melting point [°C]	SMILES	cytotoxic effect on A549 lung cancer cell line (in words) [1]	IC50 ([1]; Homo sapiens, A549) [µM]	IC50 ([2]; Homo sapiens, HEK-293T) [µM]	IC50 [3] [µM]	selectivity index (SI), HEK-293T IC50 divided by A549 IC50 [1]	toxic effect on healthy HEK-293T cells (in words) [2]	cytotoxic effect on HepG2 liver cancer cell line (in words) [3]	selectivity index (SI), HEK-293T IC50 / HepG2 IC50 [3]	IC50 [1] [µM]	IC50 [2] [µM]
260 to 261	O=C1Nc2ccc(F)cc2C1=NN=Cc1cccc(O)c1 [Compound 10, 5-Fluoro-3-{[3-hydroxybenzylidene]hydrazinylidene}indolin-2-one]	cytotoxic effect	180	87	166	0.48	–	cytotoxic effects	0.52	–	–
275 to 276	O=C1Nc2ccc(F)cc2C1=NN=Cc1ccc(O)cc1 [Compound 11, 5-Fluoro-3-{[4-hydroxybenzylidene]hydrazinylidene}indolin-2-one]	not active	> 200	> 200	> 200	–	–	–	–	–	–
244 to 246	COc1cccc(C=NN=C2C(=O)Nc3ccc(F)cc32)c1O [Compound 12, 5-Fluoro-3-{[2-hydroxy-3-methoxybenzylidene]hydrazinylidene}indolin-2-one]	cytotoxic effect	150	> 200	> 200	> 1.33	–	–	–	–	–
257 to 258	COc1ccc(C=NN=C2C(=O)Nc3ccc(F)cc32)c(O)c1 [Compound 13, 5-Fluoro-3-{[2-hydroxy-4-methoxybenzylidene]hydrazinylidene}indolin-2-one]	not active	> 200	> 200	> 200	–	–	–	–	–	–
263 to 264	COc1ccc(C=NN=C2C(=O)Nc3ccc(F)cc32)cc1O [Compound 14, 5-Fluoro-3-{[3-hydroxy-4-methoxybenzylidene]hydrazinylidene}indolin-2-one]	cytotoxic effect	115	> 200	> 200	> 1.73	–	–	–	–	–
232 to 233	COc1cc(C=NN=C2C(=O)Nc3ccc(F)cc32)ccc1O [Compound 15, 5-Fluoro-3-{[4-hydroxy-3-methoxybenzylidene]hydrazinylidene}indolin-2-one]	not active	> 200	> 200	> 200	–	–	–	–	–	–
